The values below come from patent publication US8546381B2, “Bridged heterocyclic compounds and methods of use” (Medivation Technologies, Inc., priority 2008, dated 2013).

Assay [1] deals with T1, human recombinant adrenergic α2A receptor (Homo sapiens, UniProt P08913).
T1 construct: expressed in transfected cells; host or cells: insect Sf9 cells
T1 sequence (P08913 1-465): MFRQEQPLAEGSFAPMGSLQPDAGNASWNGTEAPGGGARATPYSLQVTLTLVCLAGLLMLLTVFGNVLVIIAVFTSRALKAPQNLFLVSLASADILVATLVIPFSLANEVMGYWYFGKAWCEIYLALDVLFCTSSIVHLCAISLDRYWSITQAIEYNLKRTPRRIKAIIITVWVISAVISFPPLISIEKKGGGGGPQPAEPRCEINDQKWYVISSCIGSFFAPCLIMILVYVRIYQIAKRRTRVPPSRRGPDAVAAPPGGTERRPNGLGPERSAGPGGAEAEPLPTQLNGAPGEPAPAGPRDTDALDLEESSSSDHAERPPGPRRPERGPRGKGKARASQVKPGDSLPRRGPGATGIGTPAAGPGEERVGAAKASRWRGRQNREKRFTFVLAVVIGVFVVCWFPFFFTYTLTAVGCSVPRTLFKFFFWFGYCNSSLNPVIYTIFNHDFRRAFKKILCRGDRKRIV
Briefly: Adrenergic α2A radioligand binding ([3H]MK-912). The note with it: 1 μM; for inhibition at 1 µM: read-out: Adrenergic α2A, inhibition of ligand binding (1 μM). As to the method: To evaluate in radioligand binding assays the activity of compounds of the invention, human recombinant adrenergic α2A receptor expressed in insect Sf9 cells (Uhlen S et al. J Pharmacol Exp Ther. 271:1558, 1994) in a modified Tris-HCl buffer (50 mM Tris-HCl, pH 7.4, 12.5 mM MgCl2, 2 mM EDTA) was used. Compounds of invention were incubated with 1 nM [^3H]MK-912 for 60 minutes at 25° C. MK912 is (2S-trans)-1,3,4,5′,6,6′,7,12b-octahydro-1′,3′-dimethyl-spiro[2H-benzofuro[2,3-a]quinolizine-2,4′(1′H) -pyrimidin]-2′(3′H)-one hydrochloride Non-specific binding was estimated in the presence of 10 μM WB-4101 (2-(2,6-Dimethoxyphenoxyethyl)aminomethyl-1,4-benzodioxane hydrochloride). Receptor proteins were filtered and washed, the filters were then counted to determine [^3H]MK-912 specifically bound. Compounds were screened at 1 μM or lower, using 1% DMSO as vehicle. Biochemical assay results are presented as the percent inhibition of specific binding in Table 3.

Assay [2] has as its target T2, human recombinant serotonin (5-Hydroxytryptamine) 5-HT2C receptor (Homo sapiens, UniProt P28335).
T2 construct: expressed in transfected cells; host or cells: CHO-K1 cells
T2 sequence (P28335 33-458): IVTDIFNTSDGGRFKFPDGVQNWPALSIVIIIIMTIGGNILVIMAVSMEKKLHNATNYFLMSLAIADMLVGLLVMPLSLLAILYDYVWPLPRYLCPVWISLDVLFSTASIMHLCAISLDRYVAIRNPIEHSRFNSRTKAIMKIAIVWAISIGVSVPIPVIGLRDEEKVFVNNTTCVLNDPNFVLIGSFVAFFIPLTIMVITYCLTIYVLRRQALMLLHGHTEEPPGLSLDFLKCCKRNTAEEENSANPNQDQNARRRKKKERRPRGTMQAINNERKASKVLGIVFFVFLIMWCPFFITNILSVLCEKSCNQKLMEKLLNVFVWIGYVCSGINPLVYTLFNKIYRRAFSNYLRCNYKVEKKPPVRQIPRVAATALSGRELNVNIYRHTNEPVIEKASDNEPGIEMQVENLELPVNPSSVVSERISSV
The assay is described as follows: Serotonin 5-HT2C radioligand binding ([3H]Mesulergine). The note with it: read-out: Serotonin 5-HT2C, inhibition of ligand binding (1 μM). The essentials: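 Membranes from CHO-K1 cells expressing the human receptor were incubated 60 min at 25 °C with 1 nM [3H]mesulergine in 50 mM Tris-HCl pH 7.4 with ascorbic acid and 10 μM pargyline. Compounds were tested at 1 μM or lower in 1% DMSO, with 1 μM mianserin defining non-specific binding. After filtration, values are % inhibition of specific binding.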

The target in assay [3] is T3, human recombinant serotonin (5-Hydroxytryptamine) 5-HT6 receptor (Homo sapiens, UniProt P50406).
T3 construct: expressed in transfected cells; host or cells: human HeLa cells
T3 sequence (P50406 whole entry): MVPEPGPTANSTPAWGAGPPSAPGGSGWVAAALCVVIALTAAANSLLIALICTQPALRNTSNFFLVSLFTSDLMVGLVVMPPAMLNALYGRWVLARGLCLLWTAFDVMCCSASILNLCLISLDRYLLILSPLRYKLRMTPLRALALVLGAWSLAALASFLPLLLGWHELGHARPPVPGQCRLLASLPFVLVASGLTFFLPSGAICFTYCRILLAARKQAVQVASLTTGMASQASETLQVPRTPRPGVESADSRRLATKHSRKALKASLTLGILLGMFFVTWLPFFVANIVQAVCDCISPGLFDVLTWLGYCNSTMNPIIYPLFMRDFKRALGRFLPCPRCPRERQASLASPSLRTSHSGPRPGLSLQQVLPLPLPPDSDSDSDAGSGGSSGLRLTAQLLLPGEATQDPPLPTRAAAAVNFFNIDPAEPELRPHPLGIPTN
Briefly: Serotonin 5-HT6 radioligand binding ([3H]LSD). The following applies: for inhibition at 1 µM: read-out: Serotonin 5-HT6, inhibition of ligand binding (1 μM). The essentials: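 Membranes of HeLa cells expressing human 5-HT6 were incubated with 1.5 nM [3H]LSD in Tris-HCl buffer pH 7.4 for 120 min at 37° C, with non-specific binding defined by 5 μM 5-HT.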

The structures appear in SMILES notation. Where “and” joins values, the source holds several entries; their conditions need not be identical. Equal values may be shown once.

`Cc1ccc2c(c1)c1c(n2CCc2ccccc2)CC2CCCC1N2C` (stereo not shown) [Compound 56]: the inhibition at 1 µM in assay [1] stood at 92%; in assay [2], 36%; in assay [3], 30%.
As for `C/C(=C\n1c2c(c3cc(C)ccc31)C1CCC(C2)N1C)c1ccc(Cl)cc1Cl` (stereo not shown) [Compound 163], the inhibition at 1 µM in assay [1] was determined as 95%; in assay [2], 94%; in assay [3] it was 36%.
Regarding `COc1ccc(CCn2c3c(c4cc(Cl)ccc42)C2CCC(C3)N2C)cc1` (stereo not shown) [Compound 84], the inhibition at 1 µM in assay [1] came out at 76%; in assay [2] it was 93%; in assay [3], 13%.
For `COc1ccc(C(C)(O)Cn2c3c(c4cc(C)ccc42)C2CCC(C3)N2C)cc1F` (stereo not shown) [Compound 161], the figures for the inhibition at 1 µM in assay [1], in assay [2] and in assay [3] were 55%, 92% and 25%, respectively.
In the same order, the values of `CN1C2CCC1c1c(n(CCC(=O)N3CCSCC3)c3ccc(Cl)cc13)C2` (stereo not shown) [Compound 12] are 0%, 26% and -1%.
Turning to `CN1C2CCC1c1c(n(CCc3ccc(Cl)cc3)c3ccc(Cl)cc13)C2` (stereo not shown) [Compound 58], the inhibition at 1 µM in assay [1] worked out at 98%; in assay [2], 84%; in assay [3], 25%.
Consider `CN1C2CCC1c1c(n(C#Cc3ccc(Cl)cc3)c3ccc(Cl)cc13)C2` (stereo not shown) [Compound 142], for which the inhibition at 1 µM came out at 82% in assay [1], 100% in assay [2] and 36% in assay [3].
Regarding `Cc1ccc(CCn2c3c(c4cc(Cl)ccc42)C2CCC(C3)N2C)cn1` (stereo not shown) [Compound 79], the inhibition at 1 µM in assay [1] came to 14%; in assay [2], 13%; in assay [3] it was 10%.
The corresponding values for `Cc1ccc(CCn2c3c(c4cc(Cl)ccc42)C2CCC(C3)N2C)cc1` (stereo not shown) [Compound 61] are 97%, 86% and 41%.
The corresponding values for `CN1C2CCC1c1c(n(CCc3ccc(F)cc3)c3ccc(Cl)cc13)C2` (stereo not shown) [Compound 57] are 96%, 88% and 46%.
For `Cc1ccc(C(O)Cn2c3c(c4cc(Cl)ccc42)C2CCC(C3)N2C)cn1` (stereo not shown) [Compound 52], the inhibition at 1 µM is 46% in assay [1], 11% in assay [2] and 16% in assay [3].
In the same order, the values of `Cc1ccc2c(c1)c1c(n2CCCc2ccc(Cl)cc2)CC2CCC1N2C` (stereo not shown) [Compound 85] are 73%, 89% and 52%.
The corresponding values for `Cc1cncc(CCn2c3c(c4cc(C)ccc42)C2CCC(C3)N2C)c1` (stereo not shown) [Compound 90] are 26%, 27% and 6%.
In the same order, the values of `CN1C2CCC1c1c(n(CCC(=O)N3CC[S+]([O-])CC3)c3ccc(Cl)cc13)C2` (stereo not shown) [Compound 10] are -7%, 4% and -13%.
`CN1C2CCC1c1c(n(CCc3ccc(F)cc3)c3ccc(F)cc13)C2` (stereo not shown) [Compound 35]: the inhibition at 1 µM was 93% in assay [1], 86% in assay [2] and 70% in assay [3].
For the molecule `Cc1ccc2c(c1)c1c(n2CCc2ccc(C(F)(F)F)nc2)CC2CCC1N2C` (stereo not shown) [Compound 71], in assay [1], the “Adrenergic α2A, inhibition of ligand binding (1 μM)” value turned out to be 48.0% and the inhibition at 1 µM came to 28%. The inhibition at 1 µM in assay [2] was -0.259%. Moreover, in assay [3] (1 µM), the “Serotonin 5-HT6, inhibition of ligand binding (1 μM)” value was 8.0/ % and 2.0%.

By inhibition is commonly meant the change of the read-out against control, counted positive when it falls.
